Test results: ChEMBL document CHEMBL1201862, “PubChem BioAssay data set” (2004)
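Briefly, cells in 96-well plates were exposed to five compound concentrations for 48 h, and endpoints were estimated by linear interpolation. Abbreviation: GI50, concentration required for 50% inhibition of growth.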 Calls of active or inactive are those of the source. Rule as the data show it: active = GI50 up to about 1.1 µM and inactive = higher.

Experiments:
Assay in all cases: NCI anticancer screen, dose series, 48 h
[1] = system: A498
[2] = system: DU-145
[3] = system: IGROV-1
[4] = system: MDA-MB-231
[5] = system: MDA-N
[6] = system: MOLT-4
[7] = system: Malme-3M
[8] = system: NCI-H460
[9] = system: OVCAR-3
[10] = system: PC-3
[11] = system: SF-295
[12] = system: SF-539
[13] = system: SK-MEL-28
[14] = system: SK-MEL-2
[15] = system: SN12C
[16] = system: SNB-75
[17] = system: SW-620
[18] = system: TK-10
[19] = system: UACC-257
[20] = system: UACC-62

SMILES | GI50 [1] | GI50 [2] | GI50 [3] | GI50 [4] | GI50 [5] | GI50 [6] | GI50 [7] | GI50 [8] | GI50 [9] | GI50 [10] | GI50 [11] | GI50 [12] | GI50 [13] | GI50 [14] | GI50 [15] | GI50 [16] | GI50 [17] | GI50 [18] | GI50 [19] | GI50 [20]
O=C(N/N=C1/C(=O)c2c3ccccc3cc3cccc1c23)c1ccccc1 | 22.1 µM (inactive) | 4.49 µM (inactive) | 25.4 µM (inactive) | 42.4 µM (inactive) | 39.4 µM (inactive) | > 62.7 µM (inactive) | 33.5 µM (inactive) | 16.9 µM (inactive) | 42.3 µM (inactive) | 26.7 µM (inactive) | 20.5 µM (inactive) | 37.1 µM (inactive) | > 54.8 µM (inactive) | 33.2 µM (inactive) | 37.8 µM (inactive) | 27.2 µM (inactive) | > 100 µM (inactive) | 22.1 µM (inactive) | > 62.1 µM (inactive) | 26.8 µM (inactive)
CC(C)NCCCNc1c2ccccc2nc2cccc([N+](=O)[O-])c12 | 0.0164 µM (active) | 0.0065 µM (active) | < 0.001 µM (active) | 0.0132 µM (active) | 0.0138 µM (active) | 0.00211 µM (active) | 0.0133 µM (active) | 0.00227 µM (active) | 0.00834 µM (active) | 0.00745 µM (active) | 0.00746 µM (active) | 0.0484 µM (active) | 0.144 µM (active) | 0.0157 µM (active) | 0.00957 µM (active) | 0.0308 µM (active) | 0.00514 µM (active) | 0.0373 µM (active) | 0.0445 µM (active) | 0.0125 µM (active)
CCCCCCCCCCCCCCCCCCOCC(O)COP(=O)(O)OCC1OC(n2cc(F)c(=O)[nH]c2=O)CC1O (configuration not stated) | 2.66 µM (inactive) | 1.15 µM (inactive) | 11.4 µM (inactive) | 19.1 µM (inactive) | 13.4 µM (inactive) | 3.02 µM (inactive) | 14.4 µM (inactive) | 0.678 µM (active) | 13.7 µM (inactive) | 3.07 µM (inactive) | 0.682 µM (active) | 0.0721 µM (active) | 14.1 µM (inactive) | 21.4 µM (inactive) | 5.81 µM (inactive) | 2.89 µM (inactive) | 13.7 µM (inactive) | 8.93 µM (inactive) | 12.8 µM (inactive) | 0.579 µM (active)
CN1CCN(CCCCN2c3ccccc3Sc3cc(N=[N+]=[N-])ccc32)CC1 | 9.14 µM (inactive) | 4.21 µM (inactive) | 1.93 µM (inactive) | 1.91 µM (inactive) | 3.41 µM (inactive) | 1.77 µM (inactive) | 1.71 µM (inactive) | 1.94 µM (inactive) | 2.55 µM (inactive) | 1.82 µM (inactive) | 2.18 µM (inactive) | 3.31 µM (inactive) | 1.82 µM (inactive) | 2.09 µM (inactive) | 2.31 µM (inactive) | 3.39 µM (inactive) | 1.98 µM (inactive) | 1.91 µM (inactive) | 1.99 µM (inactive) | 2.13 µM (inactive)
Cc1cc2c(O)c(c1)CN(CC(=O)O)Cc1cc(C)cc(c1O)CN(CC(=O)O)Cc1cc(C)cc(c1O)CN(CC(=O)O)C2 | > 100 µM (inactive) | > 100 µM (inactive) |  | > 100 µM (inactive) | > 100 µM (inactive) | > 100 µM (inactive) | > 100 µM (inactive) | > 100 µM (inactive) | > 100 µM (inactive) | > 100 µM (inactive) | > 100 µM (inactive) | > 100 µM (inactive) | > 100 µM (inactive) | > 100 µM (inactive) | > 100 µM (inactive) | > 100 µM (inactive) | > 100 µM (inactive) | > 100 µM (inactive) | > 100 µM (inactive) | > 100 µM (inactive)
O=S(=O)(O)CCCc1cccc2ccccc12 | > 100 µM (inactive) | > 100 µM (inactive) | > 100 µM (inactive) | > 100 µM (inactive) | > 100 µM (inactive) | > 100 µM (inactive) | > 100 µM (inactive) | > 100 µM (inactive) | > 100 µM (inactive) | > 100 µM (inactive) | > 100 µM (inactive) | > 100 µM (inactive) | > 100 µM (inactive) | > 100 µM (inactive) | > 100 µM (inactive) | > 100 µM (inactive) | > 100 µM (inactive) | > 100 µM (inactive) | > 100 µM (inactive) | > 100 µM (inactive)
O=C(O)COc1c(Cl)cc(Cl)c(C(c2c(Cl)cc(Cl)c(OCC(=O)O)c2Cl)C(Cl)(Cl)Cl)c1Cl | 35.7 µM (inactive) | 38.3 µM (inactive) | 32.8 µM (inactive) | 24.9 µM (inactive) | > 100 µM (inactive) | 35.3 µM (inactive) | 28.7 µM (inactive) | 31.6 µM (inactive) |  | 38 µM (inactive) | 25 µM (inactive) | 29.2 µM (inactive) | 40.2 µM (inactive) | 19.8 µM (inactive) | 31 µM (inactive) | 29.6 µM (inactive) | 29.8 µM (inactive) | 31.9 µM (inactive) | 26.2 µM (inactive) | 18.9 µM (inactive)
C=CCOC(=O)CCCCCCCCCCCCCCCOC(=O)C1=C(CCC[C@@H](C)O[Si](C)(C)C(C)(C)C)NC(=O)N2[C@H](CC3(CC/C=C\[C@H](CC)O[Si](C(C)C)(C(C)C)C(C)C)OCCO3)CC[C@H]12 | > 100 µM (inactive) | > 100 µM (inactive) |  | > 100 µM (inactive) | > 100 µM (inactive) |  | > 100 µM (inactive) | > 100 µM (inactive) | > 100 µM (inactive) | > 100 µM (inactive) | > 100 µM (inactive) | 67.3 µM (inactive) | > 100 µM (inactive) | > 100 µM (inactive) | > 100 µM (inactive) | > 100 µM (inactive) |  | > 100 µM (inactive) | > 100 µM (inactive) | > 100 µM (inactive)
CNc1nc2c(C)ccc3nc(N(C)C)nc-3c2n1C | > 10 µM (inactive) | > 10 µM (inactive) | > 10 µM (inactive) | > 10 µM (inactive) | > 10 µM (inactive) | > 10 µM (inactive) | > 10 µM (inactive) | > 10 µM (inactive) | > 10 µM (inactive) | > 10 µM (inactive) | > 10 µM (inactive) | > 10 µM (inactive) | > 10 µM (inactive) | > 10 µM (inactive) | 7.96 µM (inactive) | > 10 µM (inactive) | > 10 µM (inactive) | > 10 µM (inactive) | > 10 µM (inactive) | 
CCOC(=O)/C=C/[C@@H](CC)O[Si](C(C)C)(C(C)C)C(C)C | > 100 µM (inactive) | > 100 µM (inactive) | > 100 µM (inactive) | > 100 µM (inactive) | > 100 µM (inactive) | > 100 µM (inactive) | > 100 µM (inactive) | > 100 µM (inactive) | > 100 µM (inactive) | 61.7 µM (inactive) | 48.4 µM (inactive) | > 100 µM (inactive) |  | > 100 µM (inactive) |  | > 100 µM (inactive) | > 100 µM (inactive) | > 100 µM (inactive) | 67.3 µM (inactive) | > 100 µM (inactive)
CCOC(=O)C(=O)/C(=C/N1C(=O)CC(=O)NC1=S)C(=O)OCC | 83.6 µM (inactive) | > 100 µM (inactive) | > 100 µM (inactive) | > 100 µM (inactive) | > 100 µM (inactive) | > 100 µM (inactive) | > 100 µM (inactive) | > 100 µM (inactive) | 0.719 µM (active) | > 100 µM (inactive) | > 100 µM (inactive) | > 100 µM (inactive) | > 100 µM (inactive) | > 100 µM (inactive) | > 100 µM (inactive) | 10.3 µM (inactive) | > 100 µM (inactive) |  | > 100 µM (inactive) | > 100 µM (inactive)
COc1cc(-c2cc(=O)c3c(O)c(OC)c(OC)c(OC)c3o2)cc(OC)c1OC [GARDENIN] | 2.92 µM (inactive) | > 100 µM (inactive) | 68.4 µM (inactive) | 2.91 µM (inactive) | > 92.7 µM (inactive) | > 100 µM (inactive) | > 100 µM (inactive) | 5.01 µM (inactive) | 3.36 µM (inactive) | > 100 µM (inactive) | 8.47 µM (inactive) | 17.1 µM (inactive) | > 100 µM (inactive) | > 55.6 µM (inactive) | 3.94 µM (inactive) | 2.23 µM (inactive) |  | 6.92 µM (inactive) | > 100 µM (inactive) | 32.4 µM (inactive)
Cc1nc(N)c(N2CCN(S(=O)(=O)N(Cc3ccccc3)Cc3ccccc3)CC2)c(O)n1 | > 10 µM (inactive) | 20.7 µM (inactive) |  | 62.4 µM (inactive) | 85.1 µM (inactive) | > 100 µM (inactive) | 25.1 µM (inactive) | 40.6 µM (inactive) | 20.6 µM (inactive) | 20.4 µM (inactive) | 26.4 µM (inactive) | 23.2 µM (inactive) | 17.6 µM (inactive) | 55.2 µM (inactive) | 32.7 µM (inactive) | 10.9 µM (inactive) | 69.7 µM (inactive) | 26.5 µM (inactive) | 25.4 µM (inactive) | 
CNC1C(O)C(OC2C(N)CC(N)C(OC3OC(C(C)O)C(O)C(O)C3N)C2O)OCC1(C)O (configuration not stated) | > 100 µM (inactive) | > 100 µM (inactive) | > 100 µM (inactive) | > 100 µM (inactive) | > 100 µM (inactive) | > 100 µM (inactive) | > 10 µM (inactive) | > 100 µM (inactive) | > 100 µM (inactive) | > 100 µM (inactive) | > 100 µM (inactive) | > 100 µM (inactive) | > 100 µM (inactive) | > 100 µM (inactive) | > 100 µM (inactive) | > 100 µM (inactive) | > 100 µM (inactive) | > 100 µM (inactive) |  | > 100 µM (inactive)
